Measurements published in ChEMBL document CHEMBL6178022, “Discovery and Optimization of Potent PROTAC Degraders of Phosphoinositide 3-Kinase with Significant in Vivo Anticancer Efficacy” (J Med Chem, 2025).
Values belong to the molecule of their own block, whether it stands above or below them.

What was measured:
PC-3 = assay: Antiproliferative activity against human PC-3 cells assessed as inhibition of cell viability incubated for 3 days by MTT/CTG assay; details: PC-3, 72 h
T47D [1] = assay: Antiproliferative activity against human T47D cells assessed as inhibition of cell viability incubated for 3 days by MTT/CTG assay; details: 72 h
MDA-MB-453 = assay: Antiproliferative activity against human MDA-MB-453 cells assessed as inhibition of cell viability incubated for 3 days by MTT/CTG assay; details: MDA-MB-453, 72 h
LNCaP = assay: Antiproliferative activity against human LNCaP cells assessed as inhibition of cell viability incubated for 3 days by MTT/CTG assay; details: 72 h
AGS = assay: Antiproliferative activity against human AGS cells assessed as inhibition of cell viability incubated for 3 days by MTT/CTG assay; details: 72 h
Pfeiffer = assay: Antiproliferative activity against human Pfeiffer cells assessed as inhibition of cell viability incubated for 3 days by MTT/CTG assay; details: 72 h
HGC-27 [2] = assay: Antiproliferative activity against human HGC-27 cells assessed as inhibition of cell viability incubated for 3 days by MTT/CTG assay; details: HGC-27, 72 h
[3] = Toxicity in male BALB/c nude mouse model xenografted with human HGC-27 cells assessed as body weight change at 30 to 60 mg/kg, ip qd treated for 14 days consecutively; type: organism-based; details: in vivo, 336 h, dose 30-60 mg/kg, time 14 day
[4] = Metabolic stability in rat liver microsomes assessed as half life at 2 uM measured up to 60 mins by LC-MS/MS analysis; type: ADME, Microsome
[5] = molecular target: Voltage-gated inwardly rectifying potassium channel KCNH2 (Homo sapiens, UniProt Q12809); assay: Inhibition of hERG stably expressed in HEK293 cells by whole-cell patch-clamp technique; type: toxicity, cell-based
Voltage-gated inwardly rectifying potassium channel KCNH2, sequence (Q12809 whole entry): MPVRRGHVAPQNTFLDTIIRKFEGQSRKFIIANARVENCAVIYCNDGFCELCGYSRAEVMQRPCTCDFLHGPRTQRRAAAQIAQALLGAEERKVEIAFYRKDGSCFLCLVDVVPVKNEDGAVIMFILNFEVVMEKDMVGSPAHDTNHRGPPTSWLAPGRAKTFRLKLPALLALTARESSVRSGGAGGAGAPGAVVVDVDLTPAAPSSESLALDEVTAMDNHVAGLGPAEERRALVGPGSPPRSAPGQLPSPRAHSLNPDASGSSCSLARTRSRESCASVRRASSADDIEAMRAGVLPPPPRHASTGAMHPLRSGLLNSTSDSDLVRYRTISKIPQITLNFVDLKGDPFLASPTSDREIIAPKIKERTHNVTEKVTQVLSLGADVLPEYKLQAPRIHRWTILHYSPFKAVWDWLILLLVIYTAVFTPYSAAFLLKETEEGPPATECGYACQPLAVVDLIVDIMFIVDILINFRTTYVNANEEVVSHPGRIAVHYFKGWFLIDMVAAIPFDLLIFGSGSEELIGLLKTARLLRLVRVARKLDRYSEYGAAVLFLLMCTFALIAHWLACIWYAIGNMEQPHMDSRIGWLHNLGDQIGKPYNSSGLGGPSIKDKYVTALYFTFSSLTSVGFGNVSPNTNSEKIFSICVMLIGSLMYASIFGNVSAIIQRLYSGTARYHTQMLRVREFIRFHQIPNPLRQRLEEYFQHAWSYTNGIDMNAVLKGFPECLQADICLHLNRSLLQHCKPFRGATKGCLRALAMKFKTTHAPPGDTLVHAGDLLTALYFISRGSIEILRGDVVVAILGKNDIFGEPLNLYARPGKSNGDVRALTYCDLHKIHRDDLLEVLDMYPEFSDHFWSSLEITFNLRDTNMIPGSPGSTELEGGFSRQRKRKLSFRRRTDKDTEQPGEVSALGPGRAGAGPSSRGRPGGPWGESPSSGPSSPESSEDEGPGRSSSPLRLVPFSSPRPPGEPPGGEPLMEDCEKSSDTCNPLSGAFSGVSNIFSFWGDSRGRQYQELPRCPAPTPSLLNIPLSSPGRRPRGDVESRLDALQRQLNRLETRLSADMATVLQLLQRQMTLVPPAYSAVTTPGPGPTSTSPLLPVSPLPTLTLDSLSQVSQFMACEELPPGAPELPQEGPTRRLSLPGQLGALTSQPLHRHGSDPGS

[6] = Metabolic stability in rat plasma at 2 uM measured up to 60 mins by LC-MS/MS analysis; type: ADME, cell-free; details: 1 h
hERG (KCNH2) = hERG (KCNH2) (Homo sapiens, UniProt Q12809); assay: Inhibition of hERG stably expressed in HEK293 cells at 10 uM by whole-cell patch-clamp technique relative to control; type: toxicity, cell-based; details: HEK293 cells stably expressing hERG
hERG (KCNH2), sequence (Q12809 whole entry): as above

HGC-27 [7] = assay: Antitumor activity against human HGC-27 cells xenografted in male BALB/c nude mouse model at 60 mg/kg, ip qd treated for 14 days consecutively relative to control; type: functional; details: HGC-27, 336 h, time 14 day, read-out: TGI
T47D [8] = assay: Induction of cell cycle arrest in human T47D cells assessed as accumulation at G2/M phase incubated for 24 hrs by PI staining based flow cytometry; type: functional; details: dose 0.1-10 µM
T47D [9] = assay: Effect on PI3K-alpha mRNA level in human T47D cells at 1 uM incubated for 24 hrs by RT-PCR analysis; type: functional, cell-based
[10] = Cmax in Sprague-Dawley rat at 15 mg/kg, ip measured for 24 hrs by LC-MS/MS analysis; type: ADME, organism-based; details: in vivo
HGC-27 [11] = assay: Antitumor activity against human HGC-27 cells xenografted in male BALB/c nude mouse model at 30 mg/kg, ip qd treated for 14 days consecutively relative to control; type: functional; details: HGC-27, 336 h, time 14 day, read-out: TGI
[12] = Metabolic stability in mouse plasma at 2 uM measured up to 60 mins by LC-MS/MS analysis; type: ADME, cell-free; details: 1 h
[13] = Terminal half life in Sprague-Dawley rat at 1.5 mg/kg, iv measured for 24 hrs by LC-MS/MS analysis; type: ADME, organism-based; details: in vivo, read-out: beta t1/2 (converted)
[14] = Metabolic stability in human liver microsomes assessed as half life at 2 uM measured up to 60 mins by LC-MS/MS analysis; type: ADME, Microsome
[15] = Metabolic stability in human plasma at 2 uM measured up to 60 mins by LC-MS/MS analysis; type: ADME, cell-free; details: 1 h
[16] = Drug metabolism in monkey liver microsomes at 2 uM measured up to 60 mins in absence of NADPH by LC-MS/MS analysis; type: ADME, Macaca mulatta, Microsome; details: rhesus monkey, 1 h
[17] = Toxicity in male BALB/c nude mouse model xenografted with human DOHH-2 cells assessed as body weight loss at 30 mg/kg, ip qd treated for 21 days consecutively; type: organism-based; details: in vivo, 504 h, time 21 day
[18] = AUC (0 to t) in ICR mouse at 30 mg/kg, ip measured for 24 hrs by LC-MS/MS analysis; type: ADME, organism-based; details: in vivo
[19] = AUC (0 to t) in Sprague-Dawley rat at 1.5 mg/kg, iv measured for 24 hrs by LC-MS/MS analysis; type: ADME, organism-based; details: in vivo
[20] = AUC (0 to t) in ICR mouse at 3 mg/kg, iv measured for 24 hrs by LC-MS/MS analysis; type: ADME, organism-based; details: in vivo
[21] = Drug metabolism in dog liver microsomes at 2 uM measured up to 60 mins in absence of NADPH by LC-MS/MS analysis; type: ADME, Canis lupus familiaris, Microsome; details: 1 h
[22] = Toxicity in C57BL/6J mouse assessed as body weight change at 100 mg/kg, ip treated daily for 7 days; type: organism-based; details: in vivo, 168 h, time 7 day
[23] = Terminal half life in Sprague-Dawley rat at 15 mg/kg, ip measured for 24 hrs by LC-MS/MS analysis; type: ADME, organism-based; details: in vivo, read-out: beta t1/2 (converted)
[24] = Metabolic stability in monkey plasma at 2 uM measured up to 60 mins by LC-MS/MS analysis; type: ADME, cell-free, Macaca mulatta; details: rhesus monkey, 1 h
[25] = Terminal half life in ICR mouse at 3 mg/kg, iv measured for 24 hrs by LC-MS/MS analysis; type: ADME, organism-based; details: in vivo, read-out: beta t1/2 (converted)
[26] = Toxicity in male BALB/c nude mouse model xenografted with human DOHH-2 cells assessed as drug tolerance at 30 mg/kg, ip qd treated for 21 days consecutively; type: organism-based; details: in vivo, 504 h, time 21 day
[27] = Toxicity in C57BL/6J mouse administered intraperitoneally for 7 days; details: in vivo, route ip, time 7 day
[28] = Drug metabolism in rat liver microsomes at 2 uM measured up to 60 mins in absence of NADPH by LC-MS/MS analysis; type: ADME, Microsome; details: 1 h
[29] = Terminal half life in ICR mouse at 30 mg/kg, ip measured for 24 hrs by LC-MS/MS analysis; type: ADME, organism-based; details: in vivo, read-out: beta t1/2
[30] = molecular target: Phosphatidylinositol 4,5-bisphosphate 3-kinase catalytic subunit gamma isoform (Homo sapiens, UniProt P48736); assay: Inhibition of PI3K-gamma (unknown origin) by kinase selectivity profiling analysis
Phosphatidylinositol 4,5-bisphosphate 3-kinase catalytic subunit gamma isoform, sequence (P48736 whole entry, canonical isoform): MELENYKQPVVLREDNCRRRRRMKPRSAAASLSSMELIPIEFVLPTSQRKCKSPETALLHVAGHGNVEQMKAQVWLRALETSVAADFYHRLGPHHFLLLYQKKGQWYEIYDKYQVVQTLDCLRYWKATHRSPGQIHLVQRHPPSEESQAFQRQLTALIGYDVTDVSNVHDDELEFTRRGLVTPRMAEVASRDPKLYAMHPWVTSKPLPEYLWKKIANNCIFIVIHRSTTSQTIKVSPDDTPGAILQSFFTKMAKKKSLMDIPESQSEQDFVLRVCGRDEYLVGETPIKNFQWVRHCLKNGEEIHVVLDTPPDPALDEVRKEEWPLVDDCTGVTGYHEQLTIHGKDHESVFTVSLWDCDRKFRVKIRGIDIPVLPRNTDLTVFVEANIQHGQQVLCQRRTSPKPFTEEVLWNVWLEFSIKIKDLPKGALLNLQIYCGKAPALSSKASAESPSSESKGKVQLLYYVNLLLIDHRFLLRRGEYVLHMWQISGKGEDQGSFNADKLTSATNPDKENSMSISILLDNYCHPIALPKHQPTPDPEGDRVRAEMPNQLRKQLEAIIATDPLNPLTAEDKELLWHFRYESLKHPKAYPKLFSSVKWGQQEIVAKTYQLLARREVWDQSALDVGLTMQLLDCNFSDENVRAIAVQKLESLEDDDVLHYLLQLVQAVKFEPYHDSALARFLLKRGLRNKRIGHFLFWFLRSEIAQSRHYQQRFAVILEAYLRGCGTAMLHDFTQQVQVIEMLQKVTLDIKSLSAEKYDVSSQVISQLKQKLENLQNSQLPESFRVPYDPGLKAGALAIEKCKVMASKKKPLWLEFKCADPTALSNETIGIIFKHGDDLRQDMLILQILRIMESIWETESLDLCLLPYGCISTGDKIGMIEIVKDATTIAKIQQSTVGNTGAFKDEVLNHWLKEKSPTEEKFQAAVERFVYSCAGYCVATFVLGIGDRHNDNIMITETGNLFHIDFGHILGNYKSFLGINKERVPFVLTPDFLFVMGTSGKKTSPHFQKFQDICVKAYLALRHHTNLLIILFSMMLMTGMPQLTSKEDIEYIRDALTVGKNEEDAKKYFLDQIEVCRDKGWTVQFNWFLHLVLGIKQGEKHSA

DOHH-2 = assay: Antitumor activity against human DOHH-2 cells xenografted in male BALB/c nude mouse model at 30 mg/kg, ip qd treated for 21 days consecutively relative to control; type: functional; details: DOHH-2, 504 h, time 21 day, read-out: TGI
[31] = MRT (0 to t) in ICR mouse at 30 mg/kg, ip measured for 24 hrs by LC-MS/MS analysis; type: ADME, organism-based; details: in vivo
[32] = Drug metabolism in human liver microsomes at 2 uM measured up to 60 mins in absence of NADPH by LC-MS/MS analysis; type: ADME, Microsome; details: 1 h
[33] = Toxicity in male BALB/c nude mouse model xenografted with human HGC-27 cells assessed as drug tolerance at 30 to 60 mg/kg, ip qd treated for 14 days consecutively; type: organism-based; details: in vivo, 336 h, dose 30-60 mg/kg, time 14 day
[34] = AUC (0 to t) in Sprague-Dawley rat at 15 mg/kg, ip measured for 24 hrs by LC-MS/MS analysis; type: ADME, organism-based; details: in vivo
[35] = Cmax in ICR mouse at 30 mg/kg, ip measured for 24 hrs by LC-MS/MS analysis; type: ADME, organism-based; details: in vivo
[36] = MRT (0 to t) in Sprague-Dawley rat at 1.5 mg/kg, iv measured for 24 hrs by LC-MS/MS analysis; type: ADME, organism-based; details: in vivo
[37] = Metabolic stability in dog liver microsomes assessed as half life at 2 uM measured up to 60 mins by LC-MS/MS analysis; type: ADME, Canis lupus familiaris, Microsome
[38] = Metabolic stability in monkey liver microsomes assessed as half life at 2 uM measured up to 60 mins by LC-MS/MS analysis; type: ADME, Macaca mulatta, Microsome; details: rhesus monkey
[39] = Oral bioavailability in ICR mouse at 30 mg/kg measured for 24 hrs by LC-MS/MS analysis; type: ADME, organism-based; details: in vivo
[40] = MRT (0 to t) in Sprague-Dawley rat at 15 mg/kg, ip measured for 24 hrs by LC-MS/MS analysis; type: ADME, organism-based; details: in vivo
[41] = Oral bioavailability in Sprague-Dawley rat at 15 mg/kg measured for 24 hrs by LC-MS/MS analysis; type: ADME, organism-based; details: in vivo
[42] = Metabolic stability in mouse liver microsomes assessed as half life at 2 uM measured up to 60 mins by LC-MS/MS analysis; type: ADME, Microsome
[43] = Cytotoxicity against human AC16 [Human hybrid] cells; type: toxicity, cell-based
Mus musculus = assay: In vivo PROTAC activity at CRBN/PI3K-alpha in human HGC-27 cells xenografted in male BALB/c nude mouse model assessed as PI3K-alpha degradation administered intraperitoneally once daily for 14 days consecutively; type: functional, organism-based; details: dose 30-60 mg/kg, route ip, time 14.0 day
[44] = MRT (0 to t) in ICR mouse at 3 mg/kg, iv measured for 24 hrs by LC-MS/MS analysis; type: ADME, organism-based; details: in vivo
[45] = Metabolic stability in dog plasma at 2 uM measured up to 60 mins by LC-MS/MS analysis; type: ADME, cell-free, Canis lupus familiaris; details: 1 h
[46] = Drug metabolism in mouse liver microsomes at 2 uM measured up to 60 mins in absence of NADPH by LC-MS/MS analysis; type: ADME, Microsome; details: 1 h

IC50 (PC-3): 13200 nM
IC50 (T47D [1]): 360 nM
IC50 (MDA-MB-453): 770 nM
IC50 (LNCaP): 15800 nM
IC50 (AGS): 520 nM
SMILES: Cc1nc(NC(=O)N2CCC[C@H]2C(N)=O)sc1-c1ccnc(C(C)(C)C(F)(F)F)c1 [ALPELISIB]
IC50 (Pfeiffer): > 50000 nM
IC50 (HGC-27 [2]): 1920 nM

SMILES: COc1ncc(-c2cc(OCCCCCCCCCCCCNc3cccc4c3C(=O)N(C3CCC(=O)NC3=O)C4=O)c3ncnc(C)c3c2)cc1NS(=O)(=O)c1ccc(F)cc1F (stereo unspecified)
Activity [3]: Non-toxic
half-life at 2 µM [4]: 0.762 h
IC50 [5]: > 10000 nM
Stability [6]: Stable
inhibition at 10 µM (hERG (KCNH2)): 10.2%
inhibition in vivo at 60 mg/kg (HGC-27 [7]): 56.8%
IC50 (PC-3): 1480 nM
Activity (T47D [8]): Dose-dependent-effect
Activity (T47D [9]): No effect
Cmax [10]: 555 ng/mL
inhibition in vivo at 30 mg/kg (HGC-27 [11]): 38.3%
IC50 (T47D [1]): 350 nM
IC50 (MDA-MB-453): 1640 nM
Stability [12]: Stable
half-life [13]: 2.11 h
half-life at 2 µM [14]: 0.578 h
Stability [15]: Stable
Drug metabolism [16]: metabolite_notdetected
Activity [17]: Non-toxic
AUC(0-t) at 24 h [18]: 26300 ng·h/mL
AUC(0-t) at 24 h [19]: 1120 ng·h/mL
AUC(0-t) at 24 h [20]: 12700 ng·h/mL
Drug metabolism [21]: metabolite_notdetected
Activity [22]: Non-toxic
half-life [23]: 4.28 h
Stability [24]: Stable
half-life [25]: 7.88 h
Activity [26]: Non-toxic
MTD at 168 h [27]: > 100 mg/kg
IC50 (LNCaP): 3380 nM
Drug metabolism [28]: metabolite_notdetected
half-life [29]: > 24 h
IC50 [30]: > 10000 nM
inhibition in vivo at 30 mg/kg (DOHH-2): 61.8%
MRT last at 24 h [31]: 10.7 h
Drug metabolism [32]: metabolite_notdetected
IC50 (AGS): 370 nM
Activity [33]: Non-toxic
AUC(0-t) at 24 h [34]: 5490 ng·h/mL
Cmax [35]: 1420 ng/mL
MRT last at 24 h [36]: 1.98 h
half-life at 2 µM [37]: 1.12 h
half-life at 2 µM [38]: 0.542 h
bioavailability [39]: 20%
MRT last at 24 h [40]: 6.05 h
IC50 (Pfeiffer): 690 nM
bioavailability [41]: 46.4%
half-life at 2 µM [42]: 0.377 h
IC50 [43]: > 50000 nM
Activity (Mus musculus): Dose-dependent-effect
MRT last at 24 h [44]: 6.69 h
Stability [45]: Stable
Drug metabolism [46]: metabolite_notdetected
IC50 (HGC-27 [2]): 1450 nM
